Measurements taken from patent US20240350456A1, “COMPOSITIONS AND METHODS FOR DIAGNOSING AND TREATING INFLAMMATORY CONDITIONS” (RUTGERS, THE STATE UNIVERSITY OF NEW JERSEY, priority 2023, published 2024).

Tests used:
[1] = system: human-derived Caco-2 cells; experiment: In vitro transwell screening in Caco-2 cells, barrier disrupted by Clostridium difficile toxin (TEER and FITC-dextran permeability); assay type: cell-based; details: for TEER, indole metabolites (FIG. 22A): applied to the lumen, TOX; for integrated TEER (area under the curve, FIG. 21B): luminal, C. difficile toxin
Text: FIG. 20A-20B. In vitro screening of metabolites effective against leaky gut. FIG. 20A, Diagram of the in vitro transwell method used to evaluate efficacy of metabolites in protecting the leaky gut in human-derived Caco-2 cells. The luminal compartment represents the food side, and the basolateral the blood side. FIG. 20B, Transepithelial electrical resistance (TEER) measurements, and FITC-dextran measurements, evaluate the leakiness of the tight junction that regulates the pore (top) and leak (bottom) pathways of the gut. Ions (red), small molecules (blue), FITC-dextran (orange).
FIG. 21A-21D. Efficacy of tryptophan and vitamin B3 metabolites in protecting the gut barrier in vitro. FIG. 21A, TEER measurements of metabolites placed on luminal side of transwells for 72 hours. After 48 hours, the barrier was disrupted by the toxin of clostrium difficile (Cdiff). FIG. 21B, Integrated results of area under the curve using data from FIG. 21A. FIG. 21C, FITC-dextran permeability analysis of metabolites applied luminally. FIG. 21D, FITC-dextran permeability analysis of metabolites applied basolaterally.
FIG. 22A-22B. Efficacy of microbiota-derived indole metabolites in protecting the gut barrier. FIG. 22A, Integrated results of TEER measurements of metabolites placed on luminal side of transwells for 72 hours. After 48 hours, the barrier was disrupted by the toxin of clostrium difficile (Cdiff) FIG. 22B, FITC-dextran permeability analysis of metabolites from FIG. 22A applied luminally.
To perform in vitro screening of the metabolites effective against leaky gut, an in vitro transwell method was used. (FIG. 20A) The efficacy of these metabolites in protecting the leaky gut was analyzed in human-derived Caco-2 cells. Transepithelial electrical resistance (TEER) measurements evaluates the leakiness of the tight junction that regulates the pore (FIG. 20B, top) and leak (FIG. 20B, bottom) pathways of the gut. The higher the TEER, the less permeable the junction is to the movement of ions and small molecules. FITC-dextran is a large polysaccharide with a fluorescent moiety, typically used as a probe to assess the leakiness of the tight junction to large molecules like dextran. The faster the movement of FITC-dextran from lumen to blood, the greater the permeability.
(FIG. 21A) There was no effect of these metabolites on TEER when applied by themselves. After 48 h, the barrier was disrupted by the toxin of a common “bad” bacteria Clostridium difficile (Cdiff). TEER plummeted with this toxin (TOX, red line) compared to control (Veh, blue line). […] (FIG. 21A)

[2] = system: ZO-1 (Tjp1) and Ocln; experiment: Intestinal organoids treated with LPS and metabolites: tight junction (TJ) expression, RT-qPCR and immunostaining; assay type: cell-based, mouse
Method: Intestinal organoids were isolated as previously described (Das et al., 2015; Pearce et al., 2018). Briefly, crypts were isolated from small intestine of conventional house C57BL/6 male mice (Taconic Laboratories, Hudson, NY) by shaking in isolation buffer (2 mM EDTA in PBS), then, crypts were harvested, processed, and suspended in crypt culture medium (CCM), which consisted of advanced DMEM/F12 (Life Technologies, Carlsbad, CA) supplemented with serum-free B27 (1:50; Life Technologies), N2 (1:100; Life Technologies), N-acetylcysteine (1 mM; Sigma-Aldrich, St. Louis, MO), recombinant murine epithelial growth factor (EGF, 50 ng/ml; Peprotech, Rocky Hill, NJ), Noggin (100 ng/ml; Peprotech), R-Spondin (500 ng/ml; Peprotech), Glutamax-I supplement (1:100; Life Technologies), penicillin/streptomycin (500 μg/ml; Life Technologies), and HEPES ([…]; Life Technologies). Crypts were resuspended in 70% Matrigel (density ˜450 crypts per dome, 2 domes per well in 24-well plate) and allowed to solidify at 37° C. for 20 min. CCM (1.5 mL) was then added to each well. Cultures were incubated in a humidified incubator at 37° C., and CCM was changed daily. Intestinal organoid treatment with LPS and metabolites
(§1) We had 2 series of metabolite-treated organoid experiments, i.e., 1) organoid from conventional C57BL6 mice and 2) Ocln KO and littermate WT control as a gift from Prof. Jerrold Turner (Harvard University). […] Seeding is designated as day 0. On day 3 of culture, the existing media in the wells were completely removed before adding treatments. LPS (1 μg/mL) with or without metabolites, i.e., IPA (0.1 mM) (Li et al., 2021), IAM (200 μM) (Vyhlidalova et al., 2020), MNA (12 ng/ml) (Liu et al., 2015), CARN (20 mM) (Boldyrev et al., 2013) or ASA (1 μM) (Erez et al., 2011) were each added in CCM at known physiological concentrations, incubated for 48 hours, thereafter, organoid was harvested for RNA extraction, and paraformaldehyde fixation for immunostaining.
(§2) Total RNA was extracted from the intestinal organoids using a commercially available kit (RNeasy Microkit; Qiagen, MD, Cat. #74004) following manufacturer's instructions. mRNA samples were converted to cDNA using Bio-Rad's iScript Reverse Transcription Supermix for RT-qPCR (Bio-Rad Laboratories, Hercules, CA, Cat. #1708840). cDNA was then used for RT-qPCR (Mx3000P. Stratagene, La Jolla, CA) to analyze several genes using Maxima SYBR Green qPCR Master Mix (Thermo Fisher Scientific, Waltham, MA) and primers (Integrated DNA Technologies, Coralville, IA). Thermal profile for three-step cycling was 10 min at 95° C. for initial denaturation; then 40 cycles of 15 sec at 95° C. for denaturation, 30 sec at 65° C. for annealing, and 30 sec at 75° C. for extension. Primers used are as follows: β-actin (Actb), forward 5′-[…]-3′ (SEQ ID NO: 5), reverse 5′-[…]-3′ (SEQ ID NO: 6); ZO-1 (Tjp1), forward 5′-[…]-3′ (SEQ ID NO: 7), reverse 5′-[…]-3′ (SEQ ID NO: 8), Ocln, forward 5′-[…]-3′ (SEQ ID NO: 9), reverse 5′-[…]-3′ (SEQ ID NO: 10); Lyz1, forward 5′-ATGGCTACCGTGGTGTCAAG-3′ (SEQ ID NO: 11), reverse 5′-CGGTCTCCACGGTTGTAGTT-3′ (SEQ ID NO: 12); Tff3, forward 5′-TAATGCTGTTGGTGGTCCTG-3′ (SEQ ID NO: 13), reverse 5′-CAGCCACGGTTGTTACACTG-3′ (SEQ ID NO: 14). All samples were normalized to β actin expression. Gene expression levels are depicted as fold change relative to the control group.
(§3) Immunocytochemistry followed earlier work (Pearce et al., 2018). Briefly, organoids were extracted from Matrigel by using cell recovery solution (Corning, Cat. No. 354253), processed then fixed in 4% paraformaldehyde for 15 min and dehydrated with 70% ethanol and kept in 4° C. until embedded in paraffin. On the day of embedding, organoids were gently spun down to a pellet (250 g for 5 min), then the supernatant was removed, the pellet resuspended in agarose and embedded in paraffin. […]

[3] = system: Tff3 and Lyz1 (goblet and Paneth cells); experiment: Organoids: goblet and Paneth cell transcripts (Tff3, Lyz1) and cell numbers; assay type: cell-based, mouse; details: enteroids
Method: as §1, §2, §3

| SMILES | TEER, indole metabolites (FIG. 22A) [1] | integrated TEER (area under the curve, FIG. 21B) [1] | also measured |
| --- | --- | --- | --- |
| N#CCc1c[nH]c2ccccc12 [Indole-3-acetonitrile] | clearly protective against TOX-induced decreases in TEER |  |  |
| O=C(O)c1c[nH]c2ccccc12 [Indole-3-carboxylic.acid, indole-3-carboxylic acid] | clearly protective against TOX-induced decreases in TEER |  |  |
| O=C(O)CCc1c[nH]c2ccccc12 [Indole-3-propionic.acid, indole-3-propionic acid] | clearly protective against TOX-induced decreases in TEER |  | gene expression of Ocln ([2]; ex vivo, in the presence of the barrier disruptor): increased gene expression of Ocln; TJ expression at the protein and mRNA levels ([2]; in the presence of LPS (1 μg/mL), 48 hr): increased TJ expression; goblet and Paneth cell transcripts and cell numbers [3]: reduced goblet and Paneth cell transcripts as well as cell numbers |
| O=C(O)C(O)Cc1c[nH]c2ccccc12 (stereo not shown) [Indolelactic.acid, indole-3-lactic acid] | clearly protective against TOX-induced decreases in TEER |  |  |
| NC(=O)c1ccc[n+]([C@@H]2O[C@H](COP(=O)([O-])OP(=O)(O)OC[C@H]3O[C@@H](n4cnc5c(N)ncnc54)[C@H](O)[C@@H]3O)[C@@H](O)[C@H]2O)c1 [NAD] |  | protected the cells from barrier disruption by TOX |  |
| NC(=O)c1cccnc1 [NAM, nicotinamide] |  | protected the cells from barrier disruption by TOX |  |
| NC(=O)c1ccc[n+]([C@@H]2O[C@H](CO)[C@@H](O)[C@H]2O)c1 [Nicotinamide.riboside, nicotinamide riboside] |  | protected the cells from barrier disruption by TOX |  |
